Values quoted from earlier work, collected in US20190224051A1, “ETNESS INDICATOR WITH HARDENERS AND CRYSTALLIZERS” (The Procter & Gamble Company, priority 2018, published 2019).

Conditions: Table 2, stabilizers

pKa (1): 1.5 | pKa (2): 2.4 | pKa (4): 9.2
SMILES: O=P(O)(O)OP(=O)(O)O [Pyrophosphoric Acid]
